From article PMC9820559, “Investigation of the Fuzzy Complex between RSV Nucleoprotein and Phosphoprotein to Optimize an Inhibition Assay by Fluorescence Polarization” (International Journal of Molecular Sciences, 2022)
Square brackets hold non-standard residues; d marks the D form. Peptide text beside a SMILES is read from it. * marks the point of attachment. BODIPY(FL) = CC1=CC(C)=[N+]2C1=Cc1ccc(CCC(=O)*)n1[B-]2(F)F; FITC = O=C1OC2(c3ccc(O)cc3Oc3cc(O)ccc32)c2ccc(NC(=S)*)cc21; pS = N[C@@H](COP(=O)(O)O)C(=O)O

Legend:
[1] = Chemical stability of fluorescently labeled P peptides; type: physicochemical; details: slightly acidic conditions / HPLC purification and FP assay conditions
Description: We started by labeling the pP11 peptide with N-terminally attached BODIPY FL, as described by Shapiro at al.. […] We then produced F11, another labelled peptide P11, by changing the fluorescent label to fluorescein-5-thiourea (FTU) by coupling with fluorescein-5-isothiocyanate (FITC). […] To directly compare FP and NMR data, we made measurements in MES pH 6.5 buffer. Brij-35 detergent (0.01% w/v) was added below its critical micellar concentration (0.11% w/v) to prevent spurious binding of the peptide to the reading plates. […] We tested buffer with and without salt.
Such derivatives were recently described as tags for bioconjugation, but, to our knowledge, not for an FP assay. […] To assess the properties of BODIPY FL as a fluorescent label for P peptides, we produced a new series of eight dicyano BODIPY FL-labeled (BCNn) peptides of variable length (Table 4) and tested them for N-RNA binding.

[2] = molecular target: T1, RSV N-RNA complex (Human respiratory syncytial virus A, UniProt P03418); assay: biochemical; type: binding; details: Kd, Fn peptides 200 nM, Tris pH 8.0 without salt; single site binding model
T1 construct: Full-length N was produced by co-expression with the C-terminal domain of RSV P protein in E. coli BL21(DE3); made in house; host or cells: E. coli BL21(DE3), co-transformed with pET-N and pGEX-P(161–241)
Description: We carried out FP measurements using the fluorescent F11 peptide and N-RNA complex. […] No salt was added to promote high affinity.
We first measured binding of Fn peptides (200 nM) to N-RNA in Tris buffer by FP (Figure 5A,B). […] We fitted the data with ΔFPmax and Kd as parameters.
We therefore measured fluorescein FP in the presence of N-RNA. […] To test if fluorescein binds to the P-binding site on the N-RNA, we carried out a competition experiment with M76 (Figure 6C).
We first performed FP measurements in salt-free Tris pH 8 buffer (Figure 8A). We measured binding curves using 200 nM of fluorescent peptides.
Fluorescence polarization measurements were carried out on a Paradigm Detection Platform (Beckman Coulter, Brea, CA, USA) operating with a microplate reader, a fluorescein detection cartridge (excitation range 485/20 nm, emission range 535/25 nm for both parallel and perpendicular components) and the SpectraMax Pro 6.1 software (Molecular Devices, San Jose, CA, USA). Samples were placed in polystyrene black flat bottom 96-well microplates (Cellstar, Greiner bio-one, Frickenhausen, Germany) with 20 µL final volume in each well. If not stated otherwise, the final concentration of fluorescent ligands was 200 nM. The buffer was either 20 mM MES pH 6.5, salt-free or with 250 mM NaCl, or 20 mM Tris pH 8.0 salt-free or with 100 mM NaCl, supplemented with 0.01% Brij-35. Mixing was done using the corresponding plate reader option. The temperature was set to 20 °C. Data were recorded in top reading mode. Measurements were done in triplicate and after an incubation time of 30 min, if not indicated otherwise. Fluorescence polarization (FP) in mFP units was determined from the parallel (I∥) and perpendicular (I⊥) components of the emitted light according to Equation (4). A grating factor G of 1.2 was determined using 1 nM fluorescein in 1 mM NaOH and assuming a theoretical FP of 27 mFP [48]. Background signal was measured from wells containing only buffer, and the mean value was subtracted from each I∥ and I⊥ component. (4) FP (mP)=1000×(I∥−G∗I⊥)/(I∥+G×I⊥)
We assumed that the measured fluorescence polarization FP is a linear combination of the FP of the fluorescent probe in the absence of N protein (FPmin) and the FP of N-bound fluorescent probe (FPmax), weighted by the molar fraction. The molar fraction x = [P]bound/[P]0 can then be expressed as a ratio of FP differences (Equation (8)). (8) x=(FP−FPmin)/(FPmax−FPmin)=∆FP/∆FPmax
To determine the Kd value of a complex between a fluorescent probe and N protein, a series of samples with constant probe concentration and varying N concentration was measured. FP binding curves were fitted with a single binding site model and a 1:1 stoichiometry.

T1 sequence (P03418 whole entry, looked up, the tested form may be a part, one chain of several): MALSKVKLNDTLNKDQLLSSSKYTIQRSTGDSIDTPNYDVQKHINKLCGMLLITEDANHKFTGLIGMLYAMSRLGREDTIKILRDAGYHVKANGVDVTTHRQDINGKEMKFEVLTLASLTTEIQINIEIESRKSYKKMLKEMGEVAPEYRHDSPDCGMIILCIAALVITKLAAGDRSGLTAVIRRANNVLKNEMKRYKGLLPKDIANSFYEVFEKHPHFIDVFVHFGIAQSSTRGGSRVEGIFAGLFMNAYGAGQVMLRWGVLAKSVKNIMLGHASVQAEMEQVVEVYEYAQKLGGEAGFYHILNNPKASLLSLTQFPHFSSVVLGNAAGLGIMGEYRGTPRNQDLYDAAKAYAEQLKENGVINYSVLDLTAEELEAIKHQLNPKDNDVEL

Row | SMILES | chemical stability [1] | Kd [2]
1 | Cc1cc(C)n2c1C=C1C=CC(CCC(=O)N[C@@H](CC(=O)O)C(=O)N[C@@H](COP(=O)(O)O)C(=O)N[C@@H](CC(=O)O)C(=O)N[C@@H](CC(N)=O)C(=O)N[C@@H](CC(=O)O)C(=O)N[C@@H](CC(C)C)C(=O)N[C@@H](COP(=O)(O)O)C(=O)N[C@@H](CC(C)C)C(=O)N[C@@H](CCC(=O)O)C(=O)N[C@@H](CC(=O)O)C(=O)N[C@@H](Cc3ccccc3)C(=O)O)=[N+]1[B-]2(F)F [BF2pP11] ({BODIPY(FL)}-D[pS]DNDL[pS]LEDF-OH) | prone to degradation | –
2 | CC(C)C[C@H](NC(=O)[C@H](CO)NC(=O)[C@H](CC(C)C)NC(=O)[C@H](CC(=O)O)NC(=O)[C@H](CC(N)=O)NC(=O)[C@H](CC(=O)O)NC(=O)[C@H](CO)NC(=O)[C@H](CC(=O)O)NC(=S)Nc1ccc2c(c1)C(=O)OC21c2ccc(O)cc2Oc2cc(O)ccc21)C(=O)N[C@@H](CCC(=O)O)C(=O)N[C@@H](CC(=O)O)C(=O)N[C@@H](Cc1ccccc1)C(=O)O [F11, ϕ-DS232DNDLS237LEDF-OH] ({FITC}-DSDNDLSLEDF-OH) | stable | 7.6 ± 0.9 µM
